Results reported in US12208080B2, “Compositions and methods for modulation of extracellular vesicle release and treatment of neurological disorders” (GEORGE MASON RESEARCH FOUNDATION, INC., priority 2018, dated 2025).

Assays:
[1] = tested on: HIV-1 infected monocytes (U1); experiment: RT-qPCR of EV-associated HIV-1 TAR and env RNA from U1 cells; assay type: cell-based; details: 5 days; for reduction in TAR RNA within EVs: average from two replicates; for incorporation of TAR RNA into EVs / incorporation of env RNA into EVs: 1, 5, 20, 50 μM; for incorporation of TAR RNA into EVs: FIG. 3A; for incorporation of env RNA into EVs: FIG. 3B; for env RNA within EVs: FIG. 9C
[2] = tested on: HIV-1 infected monocytes (U1); experiment: RT-qPCR of intracellular HIV-1 TAR and env RNA in U1 cells (viral transcription); assay type: cell-based; details: for intracellular TAR RNA (HIV-1 transcription) / intracellular env RNA (HIV-1 transcription): 1, 5, 20, 50 μM, 5 days, FIG. 4A; for intracellular TAR RNA / intracellular env RNA: CBD 1, 5, 10 μM, THC 1, 5, 10 μg/mL every day for 5 days, FIG. 15A
Procedure: HIV-1 infected monocytes (U1) were treated with CBD (1, 5, 20, and 50 μM) or THC (1, 5, 20, and 50 μM) for 5 days. Total RNA was isolated from cell pellets and analyzed by RT-qpCR for TAR RNA and env RNA. Student's t-test was used to determine significance (***=p<0.001, and**=p<0.01).
FIGS. 15A-15C are graphs and gels showing cannabidiols lower intracellular viral transcription and downstream viral products. U1 cells (1×10^6) were treated with a titration of CBD (1, 5, 10 μM) and THC (1, 5, 10 μg/mL) every day for 5 days. A) Intracellular RNA was isolated and analyzed through RT-qPCR for HIV-1 viral transcripts TAR and env. Each bar represents an average of three independent replicates. B) U1 cells (2×10^6) were treated with a titration of CBD (1, 5, 10 μM) every day for 5 days. Cells pellets were lysed, run through SDS-PAGE, and western blotted for (p-)/NF-κB, autophagosomal markers (p63, LC3), EV biogenesis marker VPS4, viral markers (gp120, Nef, p24), and Actin. C) U1 cells (5×10^6) were treated±CBD (10 μM) and Flavopiridol hydrochloride (50 nM; indicated as Flavo) and incubated for the following time points: 0 minutes, 2 hours and 6 hours. Cells were cross-linked with 1% formaldehyde solution and ChIP-ed for IgG and Pol II. ChIP DNA samples were analyzed via qPCR for TAR and env. Student's t-test was used for statistical analysis, where *p-value≤0.05; **p-value≤0.01, ***p-value≤0.001.
To determine if the observed reduction in EV-associated viral RNA was a result of a decrease in HIV-1 transcription rather than an alteration in the packaging of these viral RNAs into EVs, intracellular RNA was analyzed to assess for changes HIV-1 transcription. […] The differences in inhibition of short transcripts imply targeting at different stages of transcription with CBD inhibiting transcription initiation and THC inhibiting transcription elongation. These differences in transcriptional regulation can be further analyzed using a three-state L TR mathematical model to depict changes in viral RNA and protein production over extended periods of time (FIG. 4B).
For the isolation of total RNA, cells were harvested, washed once in 1×PBS without calcium or magnesium and resuspended in 50 μL of 1×PBS. For the isolation of total RNA from EVs, Nanotrap particles were incubated and harvested as described above, then resuspended in 50 μL of 1×PBS without calcium or magnesium. Total RNA was isolated from cell pellets and NT80/82 pellets bound with EVs using Trizol Reagent (Invitrogen) as described by the manufacturer's protocol. cDNA was generated using GoScript Reverse Transcription Systems (Promega) using Envelope Reverse: (5′-TGGGATAAGGGTCTGAAACG-3′ (SEQ ID NO:1); Tm=58° C.), and TAR Reverse: (5′-CAACAGACGGGCACACACTAC-3′ (SEQ ID NO:2), Tm=58° C.) primers. Serial dilutions of DNA from a CEM T-cell line containing a single copy of HIV-1 LAV provirus per cell (8E5 cells) were used as the quantitative standards. cDNA samples (2 μL/well) were plated into a Master Mix (18 μL/well) containing IQ Supermix (Bio-Rad), TAR Forward Primer (5′-GGTCTCTCTGGTTAGACCAGATCTG-3′ (SEQ ID NO:3)), TAR Reverse Primer (5′-CAACAGACGGGCACACACTAC-3′ (SEQ ID NO:4)), and TAR Probe (5′56-FAM-AG CCTCAATAAAGCTTGCCTTGAGTGCTTC-36-TAMSp-3′ (SEQ ID NO:5)). RT-qPCR conditions were as follows: one cycle for 2 min at 95° C. followed by 41 cycles of 95° C. for 15 s and 58° C. for 40 s. Reactions were performed in triplicate using the BioRad CFX96 Real Time System. Quantitation was determined using cycle threshold (Ct) values relative to the 8E5 standard curve using the BioRad CFX Manager Software. Analysis of generated raw data was analyzed using Microsoft Excel 2016.
Therefore, U1 monocytes were treated with a titration of CBD (1, 5, 10 μM) and THC (1, 5, 10 μg/mL) every day for 5 days. Total RNA was isolated from the harvested cell pellets followed by RT-qPCR analysis of 3 independent replicates for TAR and env RNAs.

[3] = CBD 1, 5, 10 μM, THC 1, 5, 10 μg/mL
[4] = 10 μM every day for 5 days, FIG. 15A lane 4

Compound | reduction in TAR RNA within EVs ([1]; 5 μM, FIG. 9B) | reduction in TAR RNA within EVs ([1]; 10 μM, FIG. 9B) | incorporation of TAR RNA into EVs [1] | incorporation of env RNA into EVs [1] | dose-dependent decrease in EV-associated TAR RNA ([1]; CBD 1, 5, 10 μM, THC 1, 5, 10 μg/mL, FIG. 9B) | env RNA within EVs [1, 3] | decrease in intracellular TAR RNA compared to untreated control [2, 4] | decrease in intracellular env RNA compared to untreated control [2, 4] | intracellular TAR RNA (HIV-1 transcription) [2] | intracellular env RNA (HIV-1 transcription) [2] | intracellular TAR RNA [2] | intracellular env RNA [2]
C=C(C)[C@@H]1CCC(C)=C[C@H]1c1c(O)cc(CCCCC)cc1O [CBD, 2-[1R-3-methyl-6R-(1-methylethenyl)-2-cyclohexen-1-yl]-5-pentyl-1,3-benzenediol] | 55% | 86% | statistically significant, dose-dependent decrease | statistically significant, dose-dependent decrease | dose-dependent decrease | reduction | 95% | 96% | decrease of both transcripts | decrease of both transcripts | dose-dependent decrease | dose-dependent decrease
CCCCCc1cc(O)c2c(c1)OC(C)(C)[C@@H]1CCC(C)=C[C@@H]21 [THC, Δ9-tetrahydrocannabinol] | – | – | statistically significant, dose-dependent decrease | statistically significant, dose-dependent decrease | – | reduction | – | – | only resulting in a decrease in the env RNA | decrease in the env RNA | not TAR RNA | only treatment with the highest concentration of THC resulted in a significant decrease
